# Laboratory results reported in the NIST ThermoML archive (doi:10.1016/j.jct.2016.07.009).
# ± gives the expanded uncertainty stated by the source.
# How the values were obtained:
# [1] = Crystal; DTA
# [2] = Molar enthalpy of transition or fusion; conditions: Crystal; DSC
compound,measurement,setting,value
"Nc1ccc([N+](=O)[O-])cc1[N+](=O)[O-] [2,4-dinitroaniline]",Normal melting temperature,[1],178.1 ± 1.1 °C
same,Molar enthalpy of transition or fusion,[2],5.93 ± 0.227 kcal/mol
